Series [1] concerns the target T1, cloned human 5-HT1A receptors (Homo sapiens, UniProt P08908).
T1 construct: expressed in transfected cells; host or cells: HeLa cells (HA7)
T1 sequence (P08908 1-422): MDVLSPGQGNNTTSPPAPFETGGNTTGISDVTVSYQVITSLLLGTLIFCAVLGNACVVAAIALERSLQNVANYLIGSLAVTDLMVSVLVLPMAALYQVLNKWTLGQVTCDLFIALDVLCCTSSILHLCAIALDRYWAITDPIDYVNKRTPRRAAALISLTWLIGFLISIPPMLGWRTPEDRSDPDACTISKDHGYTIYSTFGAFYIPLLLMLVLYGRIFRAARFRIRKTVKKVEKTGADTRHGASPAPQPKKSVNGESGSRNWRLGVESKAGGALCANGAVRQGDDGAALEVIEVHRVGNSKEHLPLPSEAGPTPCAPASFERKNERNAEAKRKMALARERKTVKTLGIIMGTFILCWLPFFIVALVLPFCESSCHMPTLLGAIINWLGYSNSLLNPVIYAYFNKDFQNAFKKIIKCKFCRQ
The series is described as follows: Inhibition of 3H-5-CT binding to human 5-HT1A receptors. As for the experimental part: The affinity of the compounds of the invention to 5-HT1A receptors was determined by measuring the inhibition of binding of a radioactive ligand at 5-HT1A receptors as described in the following test:
Inhibition of ^3H-5-CT Binding to Human 5HT1A Receptors
By this method the inhibition by drugs of the binding of the 5-HT1A agonist ^3H-5-carboxamido tryptamine (^3H-5-CT) to cloned human 5-HT1A receptors stably expressed in transfected HeLa cells (HA7) (Fargin, A. et al, J. Biol. Chem., 1989, 264, 14848) is determined in vitro. The assay was performed as a modification of the method described by Harrington, M. A. et al, J. Pharmacol. Exp. Ther., 1994, 268, 1098. Human 5-HT1A receptors (40 μg of cell homogenate) were incubated for 15 minutes at 37° C. in 50 mM Tris buffer at pH 7.7 in the presence of ^3H-5-CT. Non-specific binding was determined by including 10 μM of metergoline. The reaction was terminated by rapid filtration through Unifilter GF/B filters on a Tomtec Cell Harvester. Filters were counted in a Packard Top Counter.

Series [2] addresses T2, Serotonin reuptake (whole rat brain synaptosomes) (Rattus norvegicus, UniProt P31652).
T2 construct: from tissue; host or cells: whole rat brain synaptosomes
In words: Inhibition of 3H-5-HT uptake into rat brain synaptosomes. The format is biochemical. The protocol:
Inhibition of ^3H-5-HT Uptake Into Rat Brain Synaptosomes
Using this method the ability of drugs to inhibit the accumulation of ^3H-5-HT into whole rat brain synaptosomes is determined in vitro.

Where [3] appears, read: cloned human 5-HT1A receptors in transfected HeLa cells (HA7), 15 minutes at 37° C., pH 7.7.
[4] abbreviates: 3H-5-HT accumulation into whole rat brain synaptosomes, in vitro, read-out: Inhibition of Serotonin reuptake IC50.

Molecules are shown by their SMILES. Read-outs that look alike come from different tables or passages of the source.

T2 sequence (P31652 whole entry): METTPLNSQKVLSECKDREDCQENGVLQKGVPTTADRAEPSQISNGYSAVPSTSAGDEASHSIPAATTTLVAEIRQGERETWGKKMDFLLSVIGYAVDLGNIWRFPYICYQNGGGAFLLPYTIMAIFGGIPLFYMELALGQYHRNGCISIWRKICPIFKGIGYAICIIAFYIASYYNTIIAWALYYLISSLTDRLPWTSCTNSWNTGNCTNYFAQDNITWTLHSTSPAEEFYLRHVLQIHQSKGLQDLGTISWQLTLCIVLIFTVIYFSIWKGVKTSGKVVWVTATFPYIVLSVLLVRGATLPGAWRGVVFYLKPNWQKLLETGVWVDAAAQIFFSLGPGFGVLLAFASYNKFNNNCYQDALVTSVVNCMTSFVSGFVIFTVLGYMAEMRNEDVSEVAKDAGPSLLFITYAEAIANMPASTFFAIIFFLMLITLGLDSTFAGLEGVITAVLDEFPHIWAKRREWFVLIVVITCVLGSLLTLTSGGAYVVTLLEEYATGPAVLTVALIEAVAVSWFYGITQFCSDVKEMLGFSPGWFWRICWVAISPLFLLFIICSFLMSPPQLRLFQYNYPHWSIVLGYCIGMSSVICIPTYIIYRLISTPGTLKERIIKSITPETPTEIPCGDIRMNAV

`OCc1cc(N2CCN(CCc3c[nH]c4cc(Cl)ccc34)CC2)c2cc[nH]c2c1` [Compound 3b, 1-(2-(6-Chloro-1H-indol-3-yl)ethyl)-4-(6-hydroxymethyl-1H-indol-4-yl)piperazine] showed a melting point of 194 to 196 °C. Besides, the IC50 in series [1] (setting [3]) came to 120 nM. Moreover, the IC50 in series [2] was 33 nM.

`OCc1cc(N2CCN(CCc3c[nH]c4ccc(Br)cc34)CC2)c2cc[nH]c2c1` [Compound 3c, 1-(2-(5-Bromo-1H-indol-3-yl)ethyl)-4-(6-hydroxymethyl-1H-indol-4-yl)piperazine] registered a melting point of 163 to 165 °C. For the same molecule, in series [1] (setting [3]), the IC50 stood at 1000 nM. For the same molecule, in series [2], the IC50 was determined as 46 nM.

With `c1cc(N2CCN(CCc3n[nH]c4ccccc34)CC2)c2cc[nH]c2c1` [Compound 1j, 1-(2-(3-Indazolyl)ethyl)-4-(1H-indol-4-yl)piperazine], the IC50 was determined as 22 nM in series [1] and 360 nM in series [2] (setting [4]).

For `Cc1ccc2c(CCN3CCN(c4cccc5[nH]ccc45)CC3)coc2c1` [Compound 4u, 1-(1H-Indol-4-yl)-4-(2-(6-methyl-3-benzofuranyl)ethyl)piperazine], the IC50 is 7 nM in series [1] (setting [3]) and 93 nM in series [2].

As to `Clc1cccc2[nH]cc(CCN3CCN(c4cccc5[nH]ccc45)CC3)c12` [Compound 2b, 1-(2-(4-Chloro-1H-indol-3-yl)ethyl)-4-(1H-indol-4-yl)piperazine], the results for the IC50 in series [1] (setting [3]) and in series [2] were 11 nM and 6.9 nM, respectively.

As for `c1ccc2c(CCCCN3CCN(c4cccc5[nH]ccc45)CC3)c[nH]c2c1` [Compound 1g, 1-(4-(1H-indol-3-yl)-1-butyl)-4-(1H-indol-4yl)piperazine], the results for the half-inhibitory concentration (IC50) in series [1] (setting [3]) and in series [2] (setting [4]) were 13 nM and 12 nM, respectively.

`Brc1cccc2c(CCN3CCN(c4cccc5[nH]ccc45)CC3)c[nH]c12` [Compound 2i, 1-(2-(7-Bromo-1H-indol-3-yl)ethyl)-4-(1H-indol-4-yl)piperazine]: the half-maximal inhibitory concentration (IC50) in series [1] (setting [3]) was found to be 5.4 nM; in series [2], 5.9 nM.

For the molecule `N#Cc1c[nH]c2cccc(N3CCN(CCc4c[nH]c5cc(Cl)ccc45)CC3)c12` [Compound 4o, 1-(2-(6-Chloro-1H-indol-3-yl)ethyl)-4-(3-cyano-1H-indol-4-yl)piperazine], the IC50 in series [1] (setting [3]) came out at 2.9 nM; in series [2] it was 19 nM.

Consider `N#Cc1c[nH]c2cccc(N3CCN(CCc4c[nH]c5ccccc45)CC3)c12` [Compound 4m, 1-(3-Cyano-1H-indol-4-yl)-4-(2-(1H-indol-3-yl)ethyl)piperazine], for which the 50% inhibitory concentration (IC50) in series [1] (setting [3]) was determined as 3.2 nM; in series [2], 3 nM.

In the case of `c1cc(N2CCN(CCc3coc4ccccc34)CC2)c2cc[nH]c2c1` [Compound 1a, 1-(2-(3-Benzofuranyl)ethyl)-4-(1H-indol-4-yl)piperazine], the IC50 in series [1] (setting [3]) is 10 nM; in series [2], 31 nM.

As to `Clc1ccc2c(CCN3CC=C(c4cccc5[nH]ccc45)CC3)c[nH]c2c1` [Compound 2g, 1-(2-(6-Chloro-1H-indol-3-yl)ethyl)-4-(1H-indol-4-yl)-1,2,3,6-tetrahydropyridine], the IC50 in series [1] (setting [3]) amounted to 2.8 nM; in series [2] it was 22 nM.
